Measured values as given in ChEMBL document CHEMBL3872249, “Computer design, synthesis, and bioactivity analyses of drugs like fingolimod used in the treatment of multiple sclerosis” (Bioorg Med Chem, 2017).
One block for each compound: values may come before it. Activity calls are given as the source filed them. No cut-off for these calls is given here.

Experiments:
SK-N-SH [1] = assay: Effect on S1PR1 mRNA expression in human SK-N-SH cells at EC10 by qPCR method relative to beta-actin; assay type: functional
SH-SY5Y [2] = assay: Effect on IL6 mRNA expression in human SH-SY5Y cells at EC10 by qPCR method relative to beta-actin; assay type: functional
SK-N-SH [3] = assay: Effect on EPHA1 mRNA expression in human SK-N-SH cells at EC10 by qPCR method relative to beta-actin; assay type: functional
SK-N-SH [4] = assay: Effect on PMP22 mRNA expression in human SK-N-SH cells at EC10 by qPCR method relative to beta-actin; assay type: functional
SH-SY5Y [5] = assay: Effect on TNF mRNA expression in human SH-SY5Y cells at EC10 by qPCR method relative to beta-actin; assay type: functional
SH-SY5Y [6] = assay: Effect on VCAM1 mRNA expression in human SH-SY5Y cells at EC10 by qPCR method relative to beta-actin; assay type: functional
SK-N-SH [7] = assay: Effect on CXCL10 mRNA expression in human SK-N-SH cells at EC10 by qPCR method relative to beta-actin; assay type: functional
SK-N-SH [8] = assay: Effect on IL6 mRNA expression in human SK-N-SH cells at EC10 by qPCR method relative to beta-actin; assay type: functional
SK-N-SH [9] = assay: Effect on DRD2 mRNA expression in human SK-N-SH cells at EC10 by qPCR method relative to beta-actin; assay type: functional
[10] = Cytotoxicity against human U118MG cells measured after 24 hrs by crystal-violet staining based assay; assay type: toxicity, cell-based; details: u-118-mg
U-118-MG [11] = assay: Effect on NFKB1 mRNA expression in human U118MG cells at EC10 by qPCR method relative to beta-actin; assay type: functional
SH-SY5Y [12] = assay: Effect on TNFRSF1A mRNA expression in human SH-SY5Y cells at EC10 by qPCR method relative to beta-actin; assay type: functional
U-118-MG [13] = assay: Effect on TNF mRNA expression in human U118MG cells at EC10 by qPCR method relative to beta-actin; assay type: functional
U-118-MG [14] = assay: Effect on S1PR1 mRNA expression in human U118MG cells at EC10 by qPCR method relative to beta-actin; assay type: functional
SK-N-SH [15] = assay: Effect on IL10 mRNA expression in human SK-N-SH cells at EC10 by qPCR method relative to beta-actin; assay type: functional
[16] = Cytotoxicity against human SK-N-SH cells measured after 24 hrs by crystal-violet staining based assay; assay type: toxicity, cell-based
[17] = target: Sphingosine 1-phosphate receptor 1 (Homo sapiens) (UniProt P21453); assay: Agonist activity at sphingosine-1-phosphate receptor (unknown origin) expressed in HEK293 cells assessed as increase in cAMP level at EC10 after 18 hrs by CRE-responsive renilla luciferase reporter gene assay; assay type: functional, cell-based
Sphingosine 1-phosphate receptor 1 (Homo sapiens), sequence (P21453 whole entry): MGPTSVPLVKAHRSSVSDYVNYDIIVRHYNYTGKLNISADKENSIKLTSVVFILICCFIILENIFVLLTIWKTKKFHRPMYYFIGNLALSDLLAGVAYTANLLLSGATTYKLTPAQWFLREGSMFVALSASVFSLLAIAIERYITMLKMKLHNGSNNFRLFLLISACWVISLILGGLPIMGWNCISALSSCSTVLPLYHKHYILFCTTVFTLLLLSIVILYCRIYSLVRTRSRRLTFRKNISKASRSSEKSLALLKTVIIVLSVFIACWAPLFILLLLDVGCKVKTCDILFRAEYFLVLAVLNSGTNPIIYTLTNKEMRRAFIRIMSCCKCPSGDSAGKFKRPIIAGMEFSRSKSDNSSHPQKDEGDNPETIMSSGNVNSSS

SH-SY5Y [18] = assay: Effect on ADORA2A mRNA expression in human SH-SY5Y cells at EC10 by qPCR method relative to beta-actin; assay type: functional
U-118-MG [19] = assay: Effect on ADCY5 mRNA expression in human U118MG cells at EC10 by qPCR method relative to beta-actin; assay type: functional
U-118-MG [20] = assay: Effect on ICAM1 mRNA expression in human U118MG cells at EC10 by qPCR method relative to beta-actin; assay type: functional
U-118-MG [21] = assay: Effect on VCAM1 mRNA expression in human U118MG cells at EC10 by qPCR method relative to beta-actin; assay type: functional
SK-N-SH [22] = assay: Effect on TNFRSF1A mRNA expression in human SK-N-SH cells at EC10 by qPCR method relative to beta-actin; assay type: functional
SK-N-SH [23] = assay: Effect on CCL2 mRNA expression in human SK-N-SH cells at EC10 by qPCR method relative to beta-actin; assay type: functional
SK-N-SH [24] = assay: Effect on ADORA2A mRNA expression in human SK-N-SH cells at EC10 by qPCR method relative to beta-actin; assay type: functional
U-118-MG [25] = assay: Effect on MMP9 mRNA expression in human U118MG cells at EC10 by qPCR method relative to beta-actin; assay type: functional
SK-N-SH [26] = assay: Effect on TNF mRNA expression in human SK-N-SH cells at EC10 by qPCR method relative to beta-actin; assay type: functional
U-118-MG [27] = assay: Effect on PMP22 mRNA expression in human U118MG cells at EC10 by qPCR method relative to beta-actin; assay type: functional
SH-SY5Y [28] = assay: Effect on CCL2 mRNA expression in human SH-SY5Y cells at EC10 by qPCR method relative to beta-actin; assay type: functional
SH-SY5Y [29] = assay: Effect on GNAS mRNA expression in human SH-SY5Y cells at EC10 by qPCR method relative to beta-actin; assay type: functional
SH-SY5Y [30] = assay: Effect on DRD2 mRNA expression in human SH-SY5Y cells at EC10 by qPCR method relative to beta-actin; assay type: functional
SH-SY5Y [31] = assay: Effect on CXCL10 mRNA expression in human SH-SY5Y cells at EC10 by qPCR method relative to beta-actin; assay type: functional
SH-SY5Y [32] = assay: Effect on S1PR1 mRNA expression in human SH-SY5Y cells at EC10 by qPCR method relative to beta-actin; assay type: functional
SH-SY5Y [33] = assay: Effect on NFKB1 mRNA expression in human SH-SY5Y cells at EC10 by qPCR method relative to beta-actin; assay type: functional
U-118-MG [34] = assay: Effect on ADORA2A mRNA expression in human U118MG cells at EC10 by qPCR method relative to beta-actin; assay type: functional
SH-SY5Y [35] = assay: Effect on IL10 mRNA expression in human SH-SY5Y cells at EC10 by qPCR method relative to beta-actin; assay type: functional
[36] = target: Sphingosine 1-phosphate receptor 1 (Homo sapiens) (UniProt P21453); assay: Agonist activity at sphingosine-1-phosphate receptor in human U118MG cells assessed as increase in cAMP level at EC10 by direct immunoassay; assay type: functional, cell-based; details: U-118-MG
SH-SY5Y [37] = assay: Effect on PMP22 mRNA expression in human SH-SY5Y cells at EC10 by qPCR method relative to beta-actin; assay type: functional
SK-N-SH [38] = assay: Effect on GNAS mRNA expression in human SK-N-SH cells at EC10 by qPCR method relative to beta-actin; assay type: functional
U-118-MG [39] = assay: Effect on IL10 mRNA expression in human U118MG cells at EC10 by qPCR method relative to beta-actin; assay type: functional
SH-SY5Y [40] = assay: Effect on MMP9 mRNA expression in human SH-SY5Y cells at EC10 by qPCR method relative to beta-actin; assay type: functional
[41] = target: Sphingosine 1-phosphate receptor 1 (Homo sapiens) (UniProt P21453); assay: Agonist activity at sphingosine-1-phosphate receptor human SK-N-SH cells assessed as increase in cAMP level at EC10 by direct immunoassay; assay type: functional, cell-based
U-118-MG [42] = assay: Effect on IL6 mRNA expression in human U118MG cells at EC10 by qPCR method relative to beta-actin; assay type: functional
SH-SY5Y [43] = assay: Effect on ADCY5 mRNA expression in human SH-SY5Y cells at EC10 by qPCR method relative to beta-actin; assay type: functional
[44] = Cytotoxicity against human SH-SY5Y cells measured after 24 hrs by crystal-violet staining based assay; assay type: toxicity, cell-based

Activity [17]: Active | Activity [36]: Active | Activity [41]: Active
Compound: CCCCCCCCc1ccc(CCC(N)(CO)CO)cc1 [FINGOLIMOD]
fold change (FC) (SK-N-SH [1]): -5.8741 | fold change (FC) (SH-SY5Y [2]): -6.498 | fold change (FC) (SK-N-SH [3]): -3.6983 | fold change (FC) (SK-N-SH [4]): -3.3914 | fold change (FC) (SH-SY5Y [5]): -15.9446 | fold change (FC) (SH-SY5Y [6]): -4.9933 | fold change (FC) (SK-N-SH [7]): -5.2302 | fold change (FC) (SK-N-SH [8]): -4.6974 | fold change (FC) (SK-N-SH [9]): -4.5217 | EC10 [10]: 0.61 µM | fold change (FC) (U-118-MG [11]): -3.1465 | fold change (FC) (SH-SY5Y [12]): -10.091 | fold change (FC) (U-118-MG [13]): -5.8716 | fold change (FC) (U-118-MG [14]): -4.1044 | fold change (FC) (SK-N-SH [15]): -4.2704 | EC10 [16]: 0.55 µM | fold change (FC) (SH-SY5Y [18]): -4.4924 | fold change (FC) (U-118-MG [19]): -5.5057 | fold change (FC) (U-118-MG [20]): -6.8152 | fold change (FC) (U-118-MG [21]): -4.7445 | fold change (FC) (SK-N-SH [22]): -3.8155 | fold change (FC) (SK-N-SH [23]): -11.3481 | fold change (FC) (SK-N-SH [24]): -8.1222 | fold change (FC) (U-118-MG [25]): -6.3039 | fold change (FC) (SK-N-SH [26]): -15.2356 | fold change (FC) (U-118-MG [27]): -5.8716 | fold change (FC) (SH-SY5Y [28]): -7.8218 | fold change (FC) (SH-SY5Y [29]): -3.605 | fold change (FC) (SH-SY5Y [30]): -9.8151 | fold change (FC) (SH-SY5Y [31]): -3.1821 | fold change (FC) (SH-SY5Y [32]): -8.6788 | fold change (FC) (SH-SY5Y [33]): -3.9931 | fold change (FC) (U-118-MG [34]): -4.9966 | fold change (FC) (SH-SY5Y [35]): -4.2501 | fold change (FC) (SH-SY5Y [37]): -5.1694 | fold change (FC) (SK-N-SH [38]): -6.1024 | fold change (FC) (U-118-MG [39]): -2.5151 | fold change (FC) (SH-SY5Y [40]): -6.6923 | fold change (FC) (U-118-MG [42]): -4.4847 | fold change (FC) (SH-SY5Y [43]): -5.5117 | EC10 [44]: 0.54 µM

Activity [17]: Active | Activity [36]: Active | Activity [41]: Active
Compound: CCCCCCCCn1nnnc1-c1ccc(C(O)CC(N)(CO)CO)cc1.Cl (stereo not drawn)
fold change (FC) (SK-N-SH [1]): -4.2281 | fold change (FC) (SH-SY5Y [2]): -3.0565 | fold change (FC) (SK-N-SH [3]): -3.7516 | fold change (FC) (SK-N-SH [4]): -5.2416 | fold change (FC) (SH-SY5Y [5]): -3.511 | fold change (FC) (SH-SY5Y [6]): -4.0191 | fold change (FC) (SK-N-SH [7]): -6.1156 | fold change (FC) (SK-N-SH [8]): -4.899 | fold change (FC) (SK-N-SH [9]): -4.2208 | EC10 [10]: 0.36 µM | fold change (FC) (U-118-MG [11]): -4.6974 | fold change (FC) (SH-SY5Y [12]): -3.2986 | fold change (FC) (U-118-MG [13]): -6.5178 | fold change (FC) (U-118-MG [14]): -3.8312 | fold change (FC) (SK-N-SH [15]): -4.6028 | EC10 [16]: 0.27 µM | fold change (FC) (SH-SY5Y [18]): -4.6048 | fold change (FC) (U-118-MG [19]): -6.08 | fold change (FC) (U-118-MG [20]): -5.4736 | fold change (FC) (U-118-MG [21]): -5.7757 | fold change (FC) (SK-N-SH [22]): -4.1053 | fold change (FC) (SK-N-SH [23]): -4.9933 | fold change (FC) (SK-N-SH [24]): -4.3394 | fold change (FC) (U-118-MG [25]): -4.5002 | fold change (FC) (SK-N-SH [26]): -4.9674 | fold change (FC) (U-118-MG [27]): -5.4523 | fold change (FC) (SH-SY5Y [28]): -4.1393 | fold change (FC) (SH-SY5Y [29]): -4.6852 | fold change (FC) (SH-SY5Y [30]): -3.4837 | fold change (FC) (SH-SY5Y [31]): -3.1588 | fold change (FC) (SH-SY5Y [32]): -5.0215 | fold change (FC) (SH-SY5Y [33]): -3.5415 | fold change (FC) (U-118-MG [34]): -4.4431 | fold change (FC) (SH-SY5Y [35]): -3.3797 | fold change (FC) (SH-SY5Y [37]): -3.0092 | fold change (FC) (SK-N-SH [38]): -4.4537 | fold change (FC) (U-118-MG [39]): -2.6793 | fold change (FC) (SH-SY5Y [40]): -3.9092 | fold change (FC) (U-118-MG [42]): -4.3829 | fold change (FC) (SH-SY5Y [43]): -4.3188 | EC10 [44]: 0.3 µM
